Experimental data as given in PubChem BioAssay (NCI).
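Cultured in 96-well plates, cells were exposed to test compound for 48 hours across five concentrations. Abbreviation: GI50, concentration required for 50% inhibition of growth. At the TGI there is no net growth.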

Assays:
Experiment in all cases: NCI-60 cell line screen, 48 h
CCRF-CEM leukemia = tested on: CCRF-CEM leukemia
U251 CNS = tested on: U251 CNS
UACC-62 melanoma = tested on: UACC-62 melanoma
HOP-92 NSCLC = tested on: HOP-92 NSCLC
K-562 leukemia = tested on: K-562 leukemia
HT29 colon = tested on: HT29 colon
KM12 colon = tested on: KM12 colon
SK-MEL-28 melanoma = tested on: SK-MEL-28 melanoma
ACHN renal = tested on: ACHN renal
MDA-MB-231 breast = tested on: MDA-MB-231 breast

| Structure (SMILES) | GI50 (CCRF-CEM leukemia) [µM] | TGI (CCRF-CEM leukemia) [µM] | TGI (U251 CNS) [µM] | TGI (UACC-62 melanoma) [µM] | GI50 (HOP-92 NSCLC) [µM] | TGI (HOP-92 NSCLC) [µM] | GI50 (K-562 leukemia) [µM] | TGI (K-562 leukemia) [µM] | GI50 (HT29 colon) [µM] | TGI (HT29 colon) [µM] | GI50 (KM12 colon) [µM] | TGI (KM12 colon) [µM] | GI50 (SK-MEL-28 melanoma) [µM] | TGI (SK-MEL-28 melanoma) [µM] | GI50 (ACHN renal) [µM] | TGI (ACHN renal) [µM] | GI50 (U251 CNS) [µM] | GI50 (UACC-62 melanoma) [µM] | GI50 (MDA-MB-231 breast) [µM] | TGI (MDA-MB-231 breast) [µM] |
| --- | --- | --- | --- | --- | --- | --- | --- | --- | --- | --- | --- | --- | --- | --- | --- | --- | --- | --- | --- | --- |
| COC1CC(OS(=O)(=O)c2ccc(C)cc2)C(OC(=O)c2ccccc2)C(C)O1 (stereo not given) | > 100 | > 100 | > 10 | > 100 | > 10 | > 100 | > 100 | > 100 | > 100 | > 100 | > 100 | > 100 | > 100 | > 100 | > 100 | > 100 |  |  |  |  |
| CCOC(=O)C(=O)Nc1c(CC)cccc1C(C)C |  |  | > 100 | > 100 |  | > 100 |  |  |  | > 100 |  | > 100 |  | > 100 |  | > 100 |  |  |  |  |
| C/C(=N\Nc1ccc2ccccc2n1)c1ccccn1 |  | 0.0284 | 1.48 | 0.652 |  |  |  | 1.68 | < 0.0407 | 3.09 | 0.115 | 9.12 | 0.345 | 16.2 | < 0.0389 | 1.32 | 0.0462 | 0.104 | < 0.042 | 4.06 |
| O=C1OC(CCCl)(c2ccccc2)CC1CN1CCOCC1 (stereo not given) |  | 41.6 | > 100 | 49.4 |  | 31.6 |  | 61.3 |  | 46 |  | 47.7 |  | 36.9 |  | > 100 |  |  |  |  |
| COc1ccc(OC)c(NC(=O)CCC/C(CC(=O)c2ccc(O)c(OC)c2)=N\NC(=O)C[N+](C)(C)C)c1 |  | > 100 | > 100 | > 100 |  | > 100 |  | > 100 |  | > 100 |  | > 100 |  | > 100 |  | > 100 |  |  |  |  |
| Cc1cc(N(CCC#N)CCC#N)ccc1/C=C/C(=O)Nc1cccc(Cl)c1 |  | > 100 | > 100 | > 100 |  | > 100 |  | > 100 |  | > 100 |  | > 100 |  | > 100 |  | > 100 |  |  |  |  |
| CCOC(=O)C(C)(c1cn(C)c2ccccc12)c1cn(C)c2ccccc12 |  | > 100 | > 100 | > 100 |  |  |  | > 100 |  | > 100 |  | > 100 |  | > 100 |  | > 100 |  |  |  |  |
| Cn1c2c(cc(S(=O)(=O)c3ccccc3)c1=O)CCc1c-2cnn1-c1ccc(Cl)cc1 | > 100 | > 100 | 3.98 | 5.07 |  |  | > 100 | > 100 | 3.31 | > 100 | 5.12 | > 100 | 3.24 | 13.4 | 1.98 | 3.88 | 2.1 | 2.35 | 2.24 | 5.27 |
| COc1ccc(C(OCC2OC(n3ccc(NC(=O)c4ccccc4)nc3=O)C(O)C2O)(c2ccccc2)c2ccccc2)cc1 (stereo not given) |  | 4.39 | 3.48 | 21 |  |  |  | 5.58 |  | 3.04 |  | 38.5 |  | 7.95 |  | 7.59 |  |  |  | 4.05 |
| CS(=O)(=O)Oc1cccc(/C=N/N=C(\N)NO)c1 |  | > 100 | > 100 | 19.5 |  | > 100 |  | > 100 |  | > 100 |  | > 100 |  | > 100 |  | 66.1 |  |  |  |  |
